Key:
[1] = system: voluntary home-cage alcohol drinking by Wistar rats; assay: Home-cage two-bottle choice alcohol drinking, acute treatment; assay type: in vivo; conditions: each drug 3 mg/kg i.p. acute
Method: Animals: Male Wistar rats (Charles River Laboratories, INC) were used in these studies. Rat housing and testing was conducted at the University of North Carolina at Chapel Hill (UNC-CH) School of Medicine in a state-of-the-art rodent vivarium approved by the Association for Assessment and Accreditation of Laboratory Animal Care International (AAALAC). Rat health was monitored daily by study investigators and veterinarians in the Division of Comparative Medicine UNC. All experimental procedures were carried out in accordance with the NIH Guide to Care and Use of Laboratory Animals (Committee for the Update of the Guide for the Care and Use of Laboratory Animals, 2011) and institutional guidelines.
Rats were housed individually in standard Plexiglas cages with standard rodent food and water available ad libitum. Upon arrival from the vendor, rats were given 7 days to acclimate to the vivarium during which they were weighed and handled by an investigator each day to monitor general health and habituate them to human contact. Rats were then weighed each day within 1-h of experimental procedures to calculate drug dosages relative to body weight. […] The colony was maintained at […] on a 12-hour light/dark cycle, with the lights on from 10 AM-10 PM. All behavioral experiments were conducted during the light portion of the light cycle.
Home-cage alcohol drinking method. Oral alcohol and water intake were examined using a two-bottle choice protocol, which is standard in the field and commonly used in our laboratory. Male Wistar rats (n=12) were first adapted to drinking from a 50 ml conical tube fitted with a standard stainless-steel ball bearing sipper tube that limits spillage. Then, two bottles were place on the cage daily. One bottle contained an alcohol solution and the other contained water. Bottles containing fresh solutions were weighed daily before and after a 24 hr access period. After drug treatment, bottles were weighed after 1 hr and 24 hrs of access. Each week, rats had 4-5 days of sweetened alcohol and water available and the remaining days only water.
Briefly, rats were first exposed to alcohol (10% v/v)+sucrose (5% w/v). versus water in the two bottles. Then, over a period of 6-weeks, the concentrations of alcohol and sucrose were gradually adjusted to alcohol (8% v/v)+sucrose (2% w/v) to achieve intake of pharmacologically relevant doses of alcohol. Rats were maintained at this concentration for the duration of the experiment for both acute (3.1.a) and chronic (3.1.b) home-cage drinking studies. Use of sweetened alcohol solutions in preclinical research provides face validity to the binge-intoxication stage of alcohol addiction in humans where sweeteners are commonly added to alcohol.
Compound 1 treatment. After establishing baseline intake of sweetened alcohol and water, rats were habituated to i.p. injections. All rats (N=12) were administered 3 habituation injections of vehicle (10% w/v kolliphor in BCD (10%)) prior to the Compound 1 dose response curve and alcohol intake was measured. Then, the Compound 1 dose response curve was conducted with dose order randomized according to a modified Latin-Square design. Rats were given a minimum of 1-2 days between injections to ensure normal drinking was re-established in absence of drug administration. Each dose of Compound 1 (0-10 mg/kg) was administered via i.p. injection and rats were placed back in the home-cage for 1 hr prior to the return of sweetened alcohol and water. Alcohol intake was measured after 1-h and 24-hrs of access in grams by weighing the drinking bottles. Data were excluded from 1 rat that emptied both bottles fully each day without drinking the solutions; thus, results are presented for a final group of N=11 rats.
Efficacy comparisons to MPEP and Naltrexone. […]

[2] = system: cue-induced reinstatement of alcohol-seeking behavior in Wistar rats; conditions: earlier work of the authors; cited from earlier work
[3] = system: cocaine reinstatement in rats; assay: Yohimbine-induced reinstatement of cocaine self-administration (Stage II); assay type: in vivo, Sprague-Dawley rats
Method: After completion of Stage I, the rats were re-trained with cocaine for one week to ensure stable baseline. And then the rats underwent a 6-day extinction training procedure in which only saline infusion occurred when active lever was pressed. Meanwhile, the rats were divided into 3 roughly even groups for pharmacological stressor-induced reinstatement—All rats received one injection of alpha-2 adrenergic antagonist yohimbine (2 mg/kg) and then placed into the training box immediately). Thirty min before yohimbine treatment, one group of rats received saline, another group received MTEP 3 mg/kg injection, and the 3rd group received Compound 1 at 3 mg/kg.
Yohimbine-induced reinstatement was re-tested two more times in the same rats 3 days and 6 days after the first test, under continuous extinction procedure (There were 2 more days of extinction training between the 1st and 2nd reinstatement test, and between the 2nd and 3rd reinstatement test). Using the 3×3 within subject design, each given animal goes through all three treatments (saline, MTEP and Compound 1) across the three rounds of test.
(§1) A one-way mixed-effects model (REML) of ANOVA followed by Dunnett's post hoc tests were used to analyze efficacy of Compound 1 and MTEP on cocaine self-administration in stages I (The repeated measure ANOVA was not totally applicable due to a few outlier data points, which are removed), and one-way mixed-effects model (REML) of ANOVA followed by Tukey's post hoc tests were used in Stage II. An effect was considered significant if P<0.05. Data were represented as the mean and standard error to the mean (s.e.m).
Statistical outliers which exceeded mean +/− (2× standard deviation) of the group were removed from the analysis. Also, for reinstatement, the extinction time was shortened (from 9 days plus extension as option to 6 days). In the present study, 3 rounds of reinstatement tests were performed, and we wished to maintain the reinstatement power, thus we cut extinction duration. Accordingly, we loosened the extinction criterion from 6 or less infusions to 9 or less infusions during the last extinction session. With this criterion, 17 out of 21 rats were eligible in drug test in Stage II.

[4] = system: oxycodone reinstatement in rats; assay: Yohimbine-induced reinstatement of oxycodone self-administration; assay type: in vivo, Sprague-Dawley rats; conditions: yohimbine 2 mg/kg; P<0.001
Method: Evaluation of Compound 1 on Oxycodone Reinstatement. After completion of testing rats were re-trained with oxycodone for one week to ensure stable baseline. Rats then underwent a 6-day extinction where only saline infusion occurred when active lever was pressed. Meanwhile, the rats were divided into 3 groups: All rats received one injection of alpha-2 adrenergic antagonist yohimbine (2 mg/kg) with 0 min pretreatment (rats were placed into the training box immediately). Thirty minutes before yohimbine treatment, one group of rats received saline, another group received MTEP 3 mg/kg injection, and the 3rd group received Compound 1 (3 mg/kg). Yohimbine-induced reinstatement was re-tested two more times in the same rats 3 days and 6 days after the first test, under continuous extinction procedure.
as §1, with “Statistical Analysis. Prism 9.40 software package Version 9 was used for statistical analysis and graphing. The number of active lever responses were recorded during each session and compared between treatment groups. A one-way” for “A one-way”, “MTEP on oxycodone self-administration in” for “MTEP on cocaine self-administration in”, “mean (s.e.m). Statistical outliers which exceeded mean +/− (2× standard deviation) of the group were removed from the analysis.” for “mean (s.e.m).”

[5] = yohimbine 2 mg/kg after saline pretreatment

| SMILES | alcohol intake at the 24-hr measurement interval, comparison of equivalent doses [1] | alcohol drinking at 1-hr of access vs vehicle control, positive control comparison ([1]; N=11) | cue-induced reinstatement in rats [2] | cocaine reinstatement, Mean Diff., Last Day of Cocaine Retraining vs. Saline - Yohimbine 2 mg/kg [3, 5] | cocaine reinstatement, Mean Diff., Last Day of Extinction vs. Saline - Yohimbine 2 mg/kg [3, 5] | reinstatement of cocaine self-administration after extinction ([3]; yohimbine 2 mg/kg, P<0.001) | reinstatement of oxycodone self-administration relative to extinguished level [4] |
| --- | --- | --- | --- | --- | --- | --- | --- |
| Cc1cccc(C#Cc2ccccc2)n1 [MPEP, reference compound] | only Compound 1 (3 mg/kg) maintained efficacy | significantly decreased alcohol drinking | blocks cue-induced reinstatement |  |  |  |  |
| COC(=O)[C@@H]1[C@H]2C[C@H]3c4[nH]c5ccccc5c4CCN3C[C@@H]2CC[C@@H]1O [Yohimbine, yohimbine] |  |  |  | 6.294 | −14.53 | induced significant reinstatement | induced significant reinstatement |
